Source: article PMC11413853, “Discovery of VU6007496: Challenges in the Development of an M1 Positive Allosteric Modulator Backup Candidate” (ACS Chemical Neuroscience, 2024)
pEC50: −log10 of the molar value.

Key:
GABAB1A = test: Eurofins radioligand binding; set-up: species or system Human; conditions: specific binding
[1] = tested on: Platelet Activating Factor (PAF); test: Eurofins radioligand binding; set-up: species or system Human; conditions: specific binding
hKvLQT1/minK = tested on: T1, hKvLQT1/minK; test: Ion channel current (Charles River Study 200609.WVN); format: cell-based, human; conditions: 10 μM; n 4
T1 construct: Charles River
From the text: (§1) Table S2. Effects of VU6007496 on Ion Channel Current (Charles River Study 200609.WVN)
(§2) Ion Channel Conc Mean % Standard Standard n Individual Data
(§3) (μM) Inhibition Deviation Error Points (% Inhibition)

hKv1.3 = tested on: T2, hKv1.3; test: as above; format: cell-based, human; conditions: 10 μM; n 4
T2 construct: Charles River
From the text: as §1, §2, §3

hNav1.5 (Tonic) = tested on: T3, hNav1.5 (Tonic); test: as above; format: cell-based, human; conditions: 10 μM, n 4
T3 construct: Charles River Study 200609.WVN
From the text: as §1, §2, §3

hCav3.2 = tested on: T4, hCav3.2; test: as above; format: cell-based, human; conditions: 10 μM; n 4
T4 construct: Charles River
From the text: as §1, §2, §3

hNav1.5 (Phasic) = tested on: T5, hNav1.5 (Phasic); test: as above; format: cell-based, human; conditions: 10 μM, n 4
T5 construct: Charles River Study 200609.WVN
From the text: as §1, §2, §3

hHCN2 = tested on: T6, hHCN2; test: as above; format: cell-based, human; conditions: 10 μM; n 3
T6 construct: Charles River
From the text: as §1, §2, §3

hCav1.2 = tested on: T7, hCav1.2; test: as above; format: cell-based, human; conditions: 10 μM; n 4
T7 construct: Charles River
From the text: as §1, §2, §3

hKv1.5 = tested on: T8, hKv1.5; test: as above; format: cell-based, human; conditions: 10 μM; n 3
T8 construct: Charles River
From the text: as §1, §2, §3

Muscarinic M1 = test: Eurofins radioligand binding; set-up: species or system Human; conditions: specific binding
Histamine H1 = test: Eurofins radioligand binding; set-up: species or system Human; conditions: specific binding
[2] = tested on: Calcium Channel L-Type, Dihydropyridine; test: Eurofins radioligand binding; set-up: species or system Rat; conditions: specific binding
Adrenergic α2A = test: Eurofins radioligand binding; set-up: species or system Human; conditions: specific binding
mouse M1 = molecular target: T9, mouse M1 (Mus musculus, UniProt P12657); test: Calcium mobilization assay, mouse M1 PAM; format: cell-based; conditions: PAM mode
T9 construct: expressed in transfected cells; host or cells: CHO (stated in general for all functional cell-based assays)
T9 sequence (P12657 whole entry): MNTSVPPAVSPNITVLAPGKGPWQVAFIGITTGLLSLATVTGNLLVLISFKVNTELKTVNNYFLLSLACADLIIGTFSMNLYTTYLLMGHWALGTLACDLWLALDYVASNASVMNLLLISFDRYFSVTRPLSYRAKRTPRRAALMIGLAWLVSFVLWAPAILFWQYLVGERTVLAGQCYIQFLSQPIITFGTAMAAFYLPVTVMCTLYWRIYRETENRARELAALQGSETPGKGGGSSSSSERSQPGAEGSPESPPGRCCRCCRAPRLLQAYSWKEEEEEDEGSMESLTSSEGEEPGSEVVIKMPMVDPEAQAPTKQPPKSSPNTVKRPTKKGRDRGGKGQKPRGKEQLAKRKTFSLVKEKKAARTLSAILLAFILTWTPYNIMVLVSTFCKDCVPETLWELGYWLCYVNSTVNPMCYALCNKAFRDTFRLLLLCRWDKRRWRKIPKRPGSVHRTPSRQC

Opiate δ1 (OP1, DOP) = test: Eurofins radioligand binding; set-up: species or system Human; conditions: specific binding
Phorbol Ester = test: Eurofins radioligand binding; set-up: species or system Mouse; conditions: specific binding
Adrenergic α1B = test: Eurofins radioligand binding; set-up: species or system Human; conditions: specific binding
Purinergic P2X = test: Eurofins radioligand binding; set-up: species or system Rat; conditions: specific binding
Endothelin ETA = test: Eurofins radioligand binding; set-up: species or system Human; conditions: specific binding
Sodium Channel, Site 2 = test: Eurofins radioligand binding; set-up: species or system Rat; conditions: specific binding
rCYP2J2 = test: Substrate depletion with recombinant human CYPs, rCYP2J2; format: in vitro ADME
From the text: To advance 11 as a candidate and into IND-enabling studies, we next needed to better understand its CYP profile to minimize drug–drug interactions in the clinic. […] We were pleased to see the contribution of another CYP beyond 3A4 for the metabolism of 11.[21] In parallel, we investigated the ability of PAM 11 to induce the expression of CYP450s (measuring mRNA) in cryopreserved human hepatocytes from three separate donors.

Potassium Channel hERG = test: Eurofins radioligand binding; conditions: human, specific binding
Dopamine D3 = test: Eurofins radioligand binding; set-up: species or system Human; conditions: specific binding
Androgen (Testosterone) = test: Eurofins radioligand binding; set-up: species or system Human; conditions: specific binding
[3] = tested on: Transporter, Serotonin (SERT); test: Eurofins radioligand binding; set-up: species or system Human; conditions: specific binding
[4] = tested on: 68 GPCRs, ion channels and transporters; test: Lead Profiling Screen, radioligand displacement (panel summary); format: binding; conditions: 10 μM; all 68 targets
Description: In a 4-strain Ames assay, with and without S9, both 11 and 12 were negative.
Table S1. Eurofins Lead Profiling Screen Data
This is a radioligand binding panel of 67 targets including GPCRs, ion channels, transporters and nuclear hormones. Biochemical assay results are presented as the percent inhibition of specific binding at a 10 μM concentration of VU6007496 (Compound 11).
Target/Protein Species % Inhibition at
Androgen (Testosterone) Human -24
Calcium Channel L-Type, Rat 12
Calcium Channel L-Type, Rat -8
Calcium Channel N-Type Rat 8
Epidermal Growth Factor (EGF) Human 5
GABAA, Flunitrazepam, Central Rat -3
GABAA, Muscimol, Central Rat -1
Glutamate, Kainate Rat -19
Glutamate, NMDA, Agonism Rat 0
Glutamate, NMDA, Glycine Rat 0
Glutamate, NMDA, Phencyclidine Rat 7
Imidazoline I2, Central Rat -9

[5] = tested on: Nicotinic Acetylcholine α1, Bungarotoxin; test: Eurofins radioligand binding; set-up: species or system Human; conditions: specific binding
[6] = tested on: Glutamate, NMDA, Phencyclidine; test: Eurofins radioligand binding; set-up: species or system Rat; conditions: specific binding
hERG = tested on: T10, hERG; test: Ion channel current (Charles River Study 200609.WVN); format: cell-based; conditions: human, n 3
T10 construct: Charles River
From the text: as §1, §2, §3

Hepatocyte MET ID, human = format: in vitro ADME; conditions: 4-h incubation
From the text: More concerning were the results generated via outsourced multispecies hepatocyte MET ID, which were drastically different than the liver S9MET ID. The extent of metabolism for VU6007496 with rat, dog, monkey and human hepatocytes was 64.7, 51.5, 63.9 and 99.5%, respectively (Figure 8). […] In human hepatocytes, PAM 11 was metabolized primarily to Metabolite A (24), the result of oxidative N-demethylation of the southern pyrazole. The other minor metabolites were oxidation on the tetrahydropyran moiety and included ring opening (Metabolite F, 25).[21]

Neuropeptide Y Y2 = test: Eurofins radioligand binding; set-up: species or system Human; conditions: specific binding
Tachykinin NK1 = test: Eurofins radioligand binding; set-up: species or system Human; conditions: specific binding
Thyroid Hormone = test: Eurofins radioligand binding; set-up: species or system Rat; conditions: specific binding
Interleukin IL-1 R1 = test: Eurofins radioligand binding; set-up: species or system Human; conditions: specific binding

With `Cn1ccc(-c2ccc(Cc3cc(C(=O)NC4CCOCC4)nc4ccn(C)c34)cc2)n1` [compound 11] the “% Inhibition at 10 µM” value (GABAB1A) was 4%, the “% Inhibition at 10 µM” value [1] was -13% and the “Mean % Inhibition” value (hKvLQT1/minK) was 13.5%. The “Mean % Inhibition” value (hKv1.3) was 16.5%, the “Mean % Inhibition” value (hNav1.5 (Tonic)) was 3.9% and the “Mean % Inhibition” value (hCav3.2) was 4.2%. For the same compound, the “Mean % Inhibition” value (hNav1.5 (Phasic)) was 11.4%, the “Mean % Inhibition” value (hHCN2) was 4.9% and the “Mean % Inhibition” value (hCav1.2) was 12.8%. The “Mean % Inhibition” value (hKv1.5) was 8.7%, the “% Inhibition at 10 µM” value (Muscarinic M1) was -8% and the “% Inhibition at 10 µM” value (Histamine H1) was 5%. For the same compound, the “% Inhibition at 10 µM” value [2] was -8%, the “% Inhibition at 10 µM” value (Adrenergic α2A) was -7% and the pEC50 (mouse M1) was 7.04. For the same compound, the “mouse M1 PAM ACh max” value (mouse M1) was 66%, the “% Inhibition at 10 µM” value (Opiate δ1 (OP1, DOP)) was 5% and the “% Inhibition at 10 µM” value (Phorbol Ester) was -1%. The “% Inhibition at 10 µM” value (Adrenergic α1B) was 14%, the “% Inhibition at 10 µM” value (Purinergic P2X) was 17% and the “% Inhibition at 10 µM” value (Endothelin ETA) was 3%. For the same compound, the “% Inhibition at 10 µM” value (Sodium Channel, Site 2) was 19%, the “share of hepatic CYP-mediated clearance, rCYP2J2” value (rCYP2J2) was 2.4% and the inhibition at 10 µM (Potassium Channel hERG) was 11%. For the same compound, the “% Inhibition at 10 µM” value (Dopamine D3) was 8%, the “% Inhibition at 10 µM” value (Androgen (Testosterone)) was -24% and the “% Inhibition at 10 µM” value [3] was -7%. The “radioligand displacement, Lead Profiling Screen” value [4] was less than 50%, the “% Inhibition at 10 µM” value [5] was -3% and the “% Inhibition at 10 µM” value [6] was 7%. The inhibition at 10 µM (hERG) was 2.6%, the “extent of metabolism, human hepatocytes” value (Hepatocyte MET ID, human) was 99.5% and the “% Inhibition at 10 µM” value (Neuropeptide Y Y2) was 31%. The “% Inhibition at 10 µM” value (Tachykinin NK1) was 8%, the “% Inhibition at 10 µM” value (Thyroid Hormone) was 2% and the “% Inhibition at 10 µM” value (Interleukin IL-1 R1) was 10%.
